Measured values from BindingDB's records for doi:10.1021/acs.jnatprod.5b00540 (Toyama Prefectural University, 2015).
Numbered stars: 1 amine (or outer) side, 2 acyl side, 3 side chain; on linkers, the order of the positions; unused ones are H or OH. Bridge positions count the residues as written; N and C are the ends. Square brackets hold non-standard residues; d marks the D form. Peptide text beside a SMILES is read from it. * marks the point of attachment. Cinnamoyl(2-(1Z-pentenyl)) = CCC/C=C\c1ccccc1/C=C/C(=O)*; X1 = CN(/C(=C/c1ccc(O)cc1)C(=O)[*:2])[*:1]; aThr = C[C@H](O)[C@H](N)C(=O)O

molecular target: T1, Accessory gene regulator protein A (Staphylococcus aureus, UniProt P0A0I7); test: Inhibition of agr-mediated quorum sensing in Staphylococcus aureus after 5 hrs by luminescence analysis
T1 sequence (P0A0I7 whole entry): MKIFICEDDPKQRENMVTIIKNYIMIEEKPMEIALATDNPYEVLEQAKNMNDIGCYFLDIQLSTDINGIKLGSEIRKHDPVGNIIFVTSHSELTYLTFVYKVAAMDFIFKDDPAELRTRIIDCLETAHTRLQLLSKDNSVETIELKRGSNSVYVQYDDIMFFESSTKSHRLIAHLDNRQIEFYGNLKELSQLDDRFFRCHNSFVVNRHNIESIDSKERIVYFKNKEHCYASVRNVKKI

In order of falling IC50:
1. C[C@H]1NC(=O)[C@@H](Cc2ccccc2)N(C)C(=O)[C@@H]2CCCN2C(=O)c2ccccc2NC(=O)[C@H](Cc2ccccc2)NC1=O  4400 nM
2. CCC/C=C\c1ccccc1/C=C/C(=O)N[C@@H]1C(=O)N(C)/C(=C/c2ccc(O)cc2)C(=O)N[C@@H](CC(C)C)C(=O)N[C@H](Cc2ccccc2)C(=O)N[C@@H]([C@H](C)O)C(=O)N[C@@H](CC(N)=O)C(=O)N[C@@H](CO)C(=O)O[C@@H]1C ({Cinnamoyl(2-(1Z-pentenyl))}-T[X1]L[dF][aThr]NS; ester 1-C)  2500 nM
3. CC[C@H](C)[C@@H]1NC(=O)[C@@H](C)NC(=O)[C@H](C(C)C)NC(=O)C[C@H](/C=C/c2ccccc2)OC(=O)[C@H](C(C)C)NC1=O [CHEBI:67522]  800 nM
4. CC(C)[C@@H]1NC(=O)C[C@H](/C=C/c2ccccc2)OC(=O)[C@H](C(C)C)NC(=O)[C@H](C(C)C)NC(=O)[C@@H](C)NC1=O  300 nM
